The assay has as its system L. monocytogenes (ATCC Strain35152, hemolytic substrain). The following applies: 30 mg/kg PO or IP, or 2 mg/kg drinking water; 1×10^6 CFU i.v.; FIGS. 7 and 9.

Take `O=c1[nH]cnc2c([C@@H]3N[C@H](CO)[C@@H](O)[C@H]3O)c[nH]c12` [NTR001, 7-[(2S,3S,4R,5R)-3,4-dihydroxy-5-(hydroxymethyl)-2-pyrrolidinyl]-1,5-dihyro-4-H-pyrrolo-[3,2-d]pyrimidin-4-one]: the weight loss result is recorded as “significant decrease”.

The values above are taken from US20170209447A1, “Use of PNP Inhibitor to Treat Relapse of Malignancy after Hematopoietic Stem Cell Transplant” (Nitor Therapeutics, priority 2014, published 2017).
